{
  "source": "paper PMC11428279",
  "about": "“Exploring Structure–Activity Relationships and Modes of Action of Laterocidine” (ACS Central Science, 2024)",
  "key": {"female Swiss mice": {"tested_on": "female Swiss mice", "assay": "Acute toxicity in mice (maximum tolerable dose)", "assay_type": "in vivo", "settings": "intravenous bolus via lateral tail vein, free base, N = 3", "method": "(§1) All animal studies were approved by the Monash University Animal Ethics Committee and involved female Swiss mice (22–28 g, 7-week-old) housed in microisolators within a PC2 animal laboratory. Mice were kept under a 12/12 h dark/light cycle at 20–24 °C and 50–70% ambient humidity.\nFor the acute toxicity studies, peptide 11 and laterocidine solutions were prepared in 0.9% saline and stored at 4 °C before use. All mice were administered an intravenous bolus of one peptide (mg/kg free base) via a lateral tail vein (≤0.1 mL). Following the injection, mice were released back into their respective home cages and individually monitored for 24 h for signs of clinical toxicity. Mice displaying any signs of toxicity were humanely euthanized according to the recommended Euthanasia/Humane Experimental End point Criteria."}, "E. coli O111:B4 LPS": {"tested_on": "E. coli O111:B4 LPS", "assay": "1H NMR titration with LPS", "assay_type": "binding", "settings": "23 °C, 50 mM acetate buffer pH 4.5, 1.5 mM peptide, 16 μL of 10 mg/mL LPS", "method": "NMR samples contained 0.75–2.0 mM laterocidine in a 50 mM acetate (d6) NMR buffer (90% H2O:10% D2O, pH 4.5 or ∼100% D2O, pH 4.5). Experiments were recorded on a Bruker 600 MHz NMR spectrometer equipped with a cryoprobe and Z axis gradient. 2D ^13C HSQC and 2D ^13C–^1H H2BC were recorded using gradients for coherence selection and sensitivity enhancement and additional presaturation of the solvent signal when required. 1D ^1H, 2D ^1H–^1H NOESY (with mixing times 35–200 ms), and 2D ^1H–^1H TOCSY experiments (mixing time 70 ms) used an excitation sculpting, DPFGSE sequence for water suppression.[51] Typical acquisition times for the 2D ^1H–^1H NOESY experiments were 524 ms (t2) and 40 ms (t1). For transferred LPS experiments, NMR data was recorded at 23–25 °C which was optimized for the least amide peak overlap. 2D ^1H–^1H NOESY spectra for the free peptide were also recorded at 23 °C. Spectra were processed with nmrPipe[52] or Topspin and analyzed with Xeasy[53] or NMRFAM Sparky.[54] Backbone assignments were made using the standard sequential NOE based assignment strategy using 2D ^1H–^1H TOCSY and 2D ^1H–^1H NOESY data. Side chain assignments were further aided using the 2D ^13C–^1H H2BC experiment. 1D ^1H STD experiments were recorded using excitation sculpting for water suppression. […]"}, "K. pneumoniae": {"tested_on": "K. pneumoniae", "assay_type": "cell-based", "method": "(§2) MICs for laterocidine and its various analogues were determined by broth microdilution[49] for the following polymyxin-susceptible ATCC and clinical isolates: P. aeruginosa FADDI-PA022, FADDI-PA001, FADDI-PA025, FADDI-PA070, FADDI-PA060; A. baumannii FADDI-AB134, FADDI-AB034, FADDI-AB030, FADDI-AB174, FADDI-AB241; K. pneumoniae FADDI-KP032, FADDI-KP022, BM1, FADDI-KP065, FADDI-KP064, FADDI-KP003; and E. cloacae FADDI-EC001, FADDI-EC003, and FADDI-EC006. Experiments were performed with cation-adjusted Mueller–Hinton broth (CAMHB) in 96-well polystyrene microtiter plates. Wells were inoculated with 100 μL of bacterial suspension prepared in CAMHB (containing ∼10^6 CFU/mL) and 100 μL of CAMHB containing increasing concentrations of polymyxins (0–32 μg/mL). MIC measurements were performed in duplicate, with the MIC being the lowest concentration at which visible growth was inhibited following 18–20 h of incubation at 37 °C. Bacterial killing kinetics was investigated over 24 h as described previously.[50]"}, "[1]": {"tested_on": "Gram-negative strains of P. aeruginosa, A. baumannii, K. pneumoniae, and E. cloacae", "assay_type": "cell-based", "method": "as §2"}, "E. cloacae": {"tested_on": "E. cloacae", "assay_type": "cell-based", "method": "as §2"}, "P. aeruginosa": {"tested_on": "P. aeruginosa", "assay_type": "cell-based", "method": "as §2"}, "A. baumannii 5075D": {"tested_on": "A. baumannii 5075D", "assay_type": "cell-based", "settings": "lacks lipid A in the outer membrane"}, "[2]": {"tested_on": "A. baumannii 5075 (wild type)", "assay": "MIC", "assay_type": "cell-based"}, "P. aeruginosa PAO1R [3]": {"tested_on": "P. aeruginosa PAO1R", "assay": "MIC", "assay_type": "cell-based", "settings": "polymyxin-resistant paired strain of PAO1"}, "P. aeruginosa PAO1 [4]": {"tested_on": "P. aeruginosa PAO1", "assay": "Flow cytometry of bacterial membrane integrity, respiration, polarity and oxidative stress", "assay_type": "cell-based", "settings": "1 h exposure", "method": "The live cell impermeant fluorophore propidium iodide (PI) (Sigma-Aldrich, Castle Hill, NSW, Australia) was used to assess loss of membrane integrity (Ex/Em 488/660–690 nm) and the redox probe 5-cyano-2,3-ditolyl tetrazolium chloride (CTC) (Sigma-Aldrich, Castle Hill, NSW, Australia) used to assess loss of cellular respiration (Ex/Em 450/630 nm). […] Intracellular oxidative stress was measured using CR-G (CellROX Green) (Sigma-Aldrich, Castle Hill, NSW, Australia, Ex/Em 488/660–690 nm).[58] Appropriately diluted samples (600 μL) were stained separately with 12.5 μM PI, 2.5 mM CTC, 6 μM DiBAC, and 2.5 μM CR-G. Samples stained with both PI and DiBAC were incubated for 2 min and immediately analyzed. Samples stained with both CTC and CR-G were incubated for 45 min at RTP, and excess dye was pelleted out prior to analysis. Fluorescence intensity data were analyzed and log transformed using the NovoExpress software (V2.1, ACEA Biosciences, USA).[34]"}, "[5]": {"tested_on": "P. aeruginosa FADDI-PA070", "assay": "Neutropenic murine bloodstream infection model", "assay_type": "in vivo, P. aeruginosa in mice", "settings": "8 mg/kg iv (free base) 2 h postinoculation, neutropenic mice, 4 h time point, N = 3, mean", "method": "as §1\nThe neutropenic bloodstream infection model was undertaken as previously described.[39] Mice were rendered neutropenic through intraperitoneal injections of cyclophosphamide administered 4 days (150 mg/kg) and 1 day (100 mg/kg) prior to inoculation. Bloodstream infection was established by administering a 50 μL bolus of early log-phase bacterial suspension (4 × 10^8 CFU/mL). Laterocidine, peptide 11, and polymyxin B solutions were prepared in sterile saline at a concentration of 1 mg/mL (free base). Two hours postinoculation, mice (n = 3) were injected intravenously with either polymyxin B at 4 mg/kg (free base), peptide 11 at 8 mg/kg (free base), laterocidine at 8 mg/kg (free base), or saline (control mice). Blood was collected immediately after (0 h) and 4 h after drug administration, serially diluted with sterile saline, and appropriately diluted samples manually plated on nutrient agar prior to overnight incubation at 37 °C. Colonies were counted manually and the bacterial load (log10 CFU/mL) in the blood of each mouse calculated. In vivo efficacy was calculated as the difference between the log10 CFU/mL blood values of treated and control mice 4 h postdosing (Δlog10 CFU/mL blood = log10 [treated] CFU/mL blood–log10[control] CFU/mL blood).[54]"}, "P. aeruginosa PAO1 [6]": {"tested_on": "P. aeruginosa PAO1", "assay": "Static time-kill study", "assay_type": "cell-based", "method": "as §2"}, "P. aeruginosa PAO1R [7]": {"tested_on": "P. aeruginosa PAO1R", "assay": "Static time-kill study", "assay_type": "cell-based", "settings": "8 × MIC, over 24 h", "method": "as §2"}, "A. baumannii 5075R": {"tested_on": "A. baumannii 5075R", "assay_type": "cell-based", "settings": "lipid A modified with phosphoethanolamine"}, "P. aeruginosa PAO1 [8]": {"tested_on": "P. aeruginosa PAO1", "assay": "MIC", "assay_type": "cell-based", "settings": "polymyxin-susceptible reference strain"}, "[9]": {"settings": "listed as Laterocidine (peptide 1)"}},
  "note": "Where two headings read alike, the source gives them in different places. Bridge positions count the residues as written; N and C are the ends. Square brackets hold non-standard residues; d marks the D form. Peptide text beside a SMILES is read from it. * marks the point of attachment. Octanoyl(7-Me) = CC(C)CCCCCC(=O)*; dOrn = NCCC[C@@H](N)C(=O)O; Orn = NCCC[C@H](N)C(=O)O",
  "data": [
    {"smiles": "CC[C@H](C)[C@@H]1NC(=O)[C@@H](NC(=O)[C@H](Cc2c[nH]c3ccccc23)NC(=O)[C@@H](CCCN)NC(=O)CNC(=O)[C@H](CCCN)NC(=O)[C@@H](CCCN)NC(=O)[C@@H](Cc2c[nH]c3ccccc23)NC(=O)[C@@H](Cc2ccc(O)cc2)NC(=O)[C@@H](CO)NC(=O)CCCCCC(C)C)[C@@H](C)OC(=O)CNC(=O)CNC(=O)[C@H](CC(N)=O)NC1=O", "note": "[Laterocidine] ({Octanoyl(7-Me)}-[dS][dY][dW][dOrn][Orn]G[dOrn]WTINGG; ester 9-C)", "values": [
      {"measurement": "maximum tolerable dose (MTD), Iv (Bolus)", "setting": "female Swiss mice", "result": 13.2, "unit": "mg/kg"},
      {"measurement": "binding affinity to LPS (line broadening in 1H NMR titration)", "setting": "E. coli O111:B4 LPS", "result": "weak to moderate binding affinity"},
      {"measurement": "MICs against K. pneumoniae (range over strains)", "setting": "K. pneumoniae", "result": "1 to 4", "unit": "µg/mL"},
      {"measurement": "MICs against the MDR strains (range)", "setting": "[1]", "result": "1 to 16", "unit": "µg/mL"},
      {"measurement": "MICs against E. cloacae (range over strains)", "setting": "E. cloacae", "result": "1 to 2", "unit": "µg/mL"},
      {"measurement": "MICs against P. aeruginosa (range over strains)", "setting": "P. aeruginosa", "result": "4 to 8", "unit": "µg/mL"},
      {"measurement": "MIC, A. baumannii 5075 D", "setting": "A. baumannii 5075D", "result": 32, "unit": "µg/mL"},
      {"measurement": "MIC, A. baumannii 5075 D", "setting": "A. baumannii 5075D; [9]", "result": "> 32", "unit": "µg/mL"},
      {"measurement": "MIC, A. baumannii 5075 S", "setting": "[2]", "result": 8, "unit": "µg/mL"},
      {"measurement": "MIC, P. aeruginosa PAO1R", "setting": "P. aeruginosa PAO1R [3]", "result": 8, "unit": "µg/mL"},
      {"measurement": "membrane integrity (propidium iodide fluorescence)", "setting": "P. aeruginosa PAO1 [4]; 1 × MIC (2 μg/mL)", "result": "no loss of membrane permeability"},
      {"measurement": "metabolic activity (CTC fluorescence)", "setting": "P. aeruginosa PAO1 [4]; 1 × MIC (2 μg/mL)", "result": "unaffected"},
      {"measurement": "intracellular oxidative stress (CellROX Green)", "setting": "P. aeruginosa PAO1 [4]; 1 × and 8 × MIC", "result": "increase at both 1 × and 8 × MIC"},
      {"measurement": "membrane potential (DiBAC fluorescence)", "setting": "P. aeruginosa PAO1 [4]; 1 × and 8 × MIC", "result": "extensive loss of membrane potential at each concentration"},
      {"measurement": "membrane integrity (propidium iodide fluorescence)", "setting": "P. aeruginosa PAO1 [4]; 8 × MIC (16 μg/mL)", "result": "substantial increase in permeability"},
      {"measurement": "metabolic activity (CTC fluorescence)", "setting": "P. aeruginosa PAO1 [4]; 8 × MIC (16 μg/mL)", "result": "markedly reduced"},
      {"measurement": "Bacteria load in blood", "setting": "[5]; listed as Peptide 1", "result": 16.93, "unit": "%"},
      {"measurement": "Bacteria load in blood", "setting": "[5]; listed as peptide 1", "result": 16.9, "unit": "%"},
      {"measurement": "regrowth at 24 h, P. aeruginosa PAO1", "setting": "P. aeruginosa PAO1 [6]; 4 × MIC, 24 h", "result": "~2", "unit": "log 10 CFU/mL"},
      {"measurement": "time-kill outcome against P. aeruginosa PAO1", "setting": "P. aeruginosa PAO1 [6]; 8 × MIC, over 24 h", "result": "bacterial eradication was achieved at 24 h"},
      {"measurement": "time-kill outcome against P. aeruginosa PAO1R", "setting": "P. aeruginosa PAO1R [7]", "result": "substantial regrowth occurring at all concentrations"},
      {"measurement": "MIC, A. baumannii 5075 R", "setting": "A. baumannii 5075R", "result": 32, "unit": "µg/mL"},
      {"measurement": "MIC, A. baumannii 5075 R", "setting": "A. baumannii 5075R; [9]", "result": "> 32", "unit": "µg/mL"},
      {"measurement": "MIC, P. aeruginosa PAO1", "setting": "P. aeruginosa PAO1 [8]", "result": 8, "unit": "µg/mL"}
    ]}
  ]
}
